Test system: heparinized whole blood
Experiment: Drug screening: inhibitor preincubation of whole blood, then PBS or rIL-2 stimulation, mRNA quantification
Assay type: cell-based, human
Description: Beta-actin expression served as a control for the expression assay. Offensive immune markers characterized included tumor necrosis factor superfamily (TNFSF) 1 (lymphotoxin), 2 (TNFα), 5 (CD40L), 6 (FasL), 8 (CD30L), 9 (CD137L), 14 (LIGHT), and 15 (TL1A). Chemokines characterized included CCL2, CCL3, CCL4, CCL8, CCL11, CCL20, CXCL1, CXCL2, CXCL3, CXCL10. Interleukins characterized include IL6, IL8, IL10, IL17, and IL23. Immune effectors characterized include GM-CSF, INFγ, CD16, Granzyme B, CD122, and TGFB-1. Markers of defensive immune function characterized include FoxP3, CTLA4, CD25, and GARP-1. Other offensive or defensive immune markers, as well as other chemokines, interleukins or effectors (among other immune-associated markers) can be tested in certain embodiments.
Shaded boxes represent a fold increase of greater than 2 as well as a statistical p value of <0.05. […] The various inhibitor compounds used to pre-treat the whole blood samples are listing on the x-axis. […] Thus, this compound has a potential to block or reduce the offensive immune response and may function as a pro-immunosuppressant compound. […] Thus, from this set of experiments, it is unclear if this particular Jak inhibitor is well-suited for promoting offensive or defensive immune responses. Further dose-response studies and/or studies with additional immune markers are necessary to elucidate the efficacy of this compound.
Embodiments of the methods described herein are also well suited to the characterization of various derivative or modified compounds, in that a single assay can generate side by side data comparing of a panel of putative derivative compounds. Moreover, based on the distinct features of the data described above, embodiments of the methods described herein are useful to detecting defensive-specific (i.e. pro-offensive) inhibitor compounds for use in clinical situations. Thus, this assay platform is useful for the analysis/screening of common and selective inhibitors for offensive and defensive immune functions.

In the case of `O=C1Nc2ccccc2/C1=C1/Nc2ccccc2/C1=N\OCC(O)CO` (stereo not shown) [E084], the “induction of IFNγ in response to PBS or rIL-2 in presence of inhibitor” value (additional experiments, FIG. 4A-4B) is reported as “specific inhibition”, the “induction of TNFSF-1 in response to PBS or rIL-2 in presence of inhibitor” value (additional experiments, FIG. 4C-4D) is reported as “specific inhibition” and the “induction of CD25 in response to PBS or rIL-2 in presence of inhibitor” value (additional experiments, FIG. 4G-4H) is reported as “induced”. For the same compound, the “induction of FoxP3 in response to PBS or rIL-2 in presence of inhibitor” value (additional experiments, FIG. 4I-4J) was “induced”.
In the case of `CC(C)(C)c1nc2c3cc[nH]c(=O)c3c3cc(F)ccc3c2[nH]1` [Jak inhibitor], the “induction of TNFSF1 mRNA in response to rIL-2 in presence of inhibitor” value (inhibitor 10 mM, 1 hour preincubation, then rIL-2 100 ng/ml 4 hours, FIG. 3A) is reported as “no induction”, the “induction of CD25 mRNA in response to rIL-2 in presence of inhibitor” value (inhibitor 10 mM, 1 hour preincubation, then rIL-2 100 ng/ml 4 hours, FIG. 3I) is reported as “blocks induction” and the “induction of FoxP3 mRNA in response to rIL-2 in presence of inhibitor” value (inhibitor 10 mM, 1 hour preincubation, then rIL-2 100 ng/ml 4 hours, FIG. 3J) is reported as “blocks induction”.
